Experimental data taken from patent US12503446B2, “Bromodomain inhibitors” (FORSCHUNGSZENTRUM JÜLICH GMBH, priority 2019, dated 2025).
“Also recorded” adds a separate entry of the source.

Legend:
[1] = system: erythroleukaemia cell line HEL (JAK2V617F-positive); assay: MTT assay, metabolic activity of HEL cells; assay type: cell-based; settings: 72 h; for effect on metabolic activity of HEL cells (in words): concentrations up to 20 μM
Method: (§1) All studies with the HEL, Molm-14 and K562 cell lines mentioned (sourced from DSMZ: ACC-11, ACC-10 and ACC-777) were conducted under germ-free conditions under a sterile hood. Incubation was effected at 37° C. in an incubator at a CO2 saturation of 5%. For the passage of the suspension cells, the cells were transferred in a Falcon prefilled with PBS (phosphate buffered saline) and centrifuged at 1200 rpm for 5 min. All three cell lines were cultured in RPMI-1640 medium (Gibco, Thermo Fischer Scientific, Darmstadt, Germany) with 10% FCS and 1% penicillin streptomycin.
(§2) The viability and metabolic activity of the cells were measured by the MTT assay. Yellow, water-soluble MTT (3-([…])-2,5-diphenyltetrazolium bromide) is a tetrazolium salt which is reduced to dark blue formazan in living cells. Insoluble formazan is released by addition of isopropanol-HCl, and its intensity can be determined by photometry at a wavelength of 550 nm. Thus, the proportion of living cells is measured by comparison with a particular control sample. The cells were counted and washed with PBS, and 30 000 cells per well were sown in triplicates in a 96-well plate. For the inhibitor treatment, the stated final concentrations were used. For this purpose, 10 µl of the appropriate inhibitor dilution was introduced into the 96-well plates, and then 90 μl of cell suspension was pipetted in. The plates were incubated in an incubator for 72 h (37° C., 5% CO2). After the incubation, 10 μl of MTT solution (5 mg/ml) was applied to the wells with a multichannel pipette and thoroughly resuspended. This was followed by incubation for 4 h in the dark at room temperature. Subsequently, the cells were resuspended in 100 μl of isopropanol-HCl and lysed, and absorption at a wavelength of 550 nm was measured by photometry with a plate reader (Kayto, RT-2100C).
(§3) The erythroleukaemia cell line HEL (JAK2V617F-positive), the AML cell line Molm-14 and the chronic myeloid leukaemia (CML) cell line K562 (BCR-ABL-positive) were used for cell experiments.
(§4) Compounds MF1-R, MF1-S, JHS1-R and JHS1-S were dissolved in DMSO, and each was used in concentrations of 0.1 μM, 1 μM, 10 μM and 20 μM. Correspondingly, DMSO was included in each case as a control treatment, and the metabolic activity thereof was set to 100%. The HEL, Molm-14 and K562 cell lines were treated with the respective compounds in the different concentrations and, after 72 h in culture, the metabolic activity, which gives information about the growth of the cells, was determined by means of MTT [3-(4,5-dimethylthiazol-2-yl)-2,5-diphenyltetrazolium bromide] assay.

AML cell line Molm-14 = assay: MTT assay, metabolic activity of Molm-14 cells; assay type: cell-based; settings: 72 h; for effect on metabolic activity of Molm-14 cells (in words): concentrations up to 20 μM
Method: as §1, §2, §3, §4

[2] = system: haematopoietic cell lines, erythroleukaemia and AML cell lines; assay: Inhibitory activity in haematopoietic cell lines (summary statements); assay type: cell-based; settings: for activity relative to PFI-1 in haematopoietic cell lines: racemic mixtures of MF1, MF2, achiral MF3
Method: as §1, §2

[3] = system: PBMC or CD34+ cells from healthy donors; assay: CFU assay, healthy controls; assay type: cell-based, human
Method: With the aid of the CFU assay, it is possible to determine the colony-forming capacity of individual cells in a semisolid methylcellulose medium (MethoCult H4434, StemCell Technologies, Cologne, Germany). The number of colonies was determined after 7-11 days.
CD34+ cells (G-CSF mobilized from stem cell donors) from healthy donors: 2×10^4 cells/ml; PBMCs from the healthy subjects: 4×10^5 cells/ml.
For this purpose, mononuclear cells (PBMC: mononuclear cells from peripheral blood) or CD34-positive stem cells (CD34+ cells) were isolated from the blood of four healthy controls and three AML or MPN patients and introduced into semisolid medium, to each of which 1 μM or 5 μM of MFS-2 or PFI-1 have been added. Individual cells in the CFU assay form cell colonies in culture after 12 days, unless the formation thereof is prevented by inhibitors.

[4] = system: proteins from the BET family; assay: Thermal shift assay (BromoMELT assay), BET family; assay type: binding; settings: 10 μM, duplicates, versus DMSO control; apart from BRDT-2
Method: (§5) The experiment was conducted in duplicates at a concentration of 10 μM.

BRD2 = assay: Thermal shift assay (BromoMELT assay), BRD2; assay type: binding; settings: 10 μM, duplicates, versus DMSO control
Method: as §5

With `CN1Cc2cc(N=S(C)(=Nc3ccccc3)c3ccccc3)ccc2NC1=O` (racemic) [JHS1, rac-N-(3-methyl-2-oxo-1,2,3,4-tetrahydroquinazolin-6-yl)-N-phenyl-S-methyl-S-phenylsulfonediimide] the “effect on metabolic activity of HEL cells (in words)” value (shortened to “effect … of HEL cells (in words)”) [1] was “reduced the metabolic activity of HEL and Molm-14 cells at concentrations of 10 and 20 μM; also recorded: achieved inhibition of the metabolic activity of HEL and Molm-14 cells at concentrations of 10 and 20 μM” and the “effect on metabolic activity of Molm-14 cells (in words)” value (“effect … of Molm-14 cells (in words)” for short) (AML cell line Molm-14) was “reduced the metabolic activity of HEL and Molm-14 cells at concentrations of 10 and 20 μM; also recorded: achieved inhibition of the metabolic activity of HEL and Molm-14 cells at concentrations of 10 and 20 μM”.
For `CN=S(C)(=Nc1ccc2c(c1)CN(C)C(=O)N2)c1ccccc1` (racemic) [JHS3, rac-N-(3-methyl-2-oxo-1,2,3,4-tetrahydroquinazolin-6-yl)-N-methyl-S-methyl-S-phenylsulfonediimide], the “effect … of HEL cells (in words)” value [1] was “inactive”, the “effect … of Molm-14 cells (in words)” value (AML cell line Molm-14) was “inactive” and the “inhibitory activity in haematopoietic / leukaemia cell lines (in words)” value [2] was “minor inhibitory activity”.
With `CN1Cc2cc(N=[S@@](C)(=Nc3ccccc3)c3ccccc3)ccc2NC1=O` [JHS1-R, (R)—N-(3-methyl-2-oxo-1,2,3,4-tetrahydroquinazolin-6-yl)-N′-phenyl-S-methyl-S-phenylsulfonediimide] the “inhibitory activity in haematopoietic / leukaemia cell lines (in words)” value [2] was “almost the same level of inhibitory action”.
`CN1Cc2cc(N=S(C)(=O)c3ccccc3)ccc2NC1=O` (racemic) [MF2, rac-N-(3-methyl-2-oxo-1,2,3,4-tetrahydroquinazolin-6-yl)-S-methyl-S-phenylsulfoximine] was tested, and the “effect … of HEL cells (in words)” value [1] was “reduced the metabolic activity of HEL and Molm-14 cells at concentrations of 10 and 20 μM”, the “effect … of Molm-14 cells (in words)” value (AML cell line Molm-14) was “reduced the metabolic activity of HEL and Molm-14 cells at concentrations of 10 and 20 μM” and the “inhibitory activity in haematopoietic / leukaemia cell lines (in words)” value [2] was “marked inhibitory activity”. For the same molecule, the “activity relative to PFI-1 in haematopoietic cell lines” value [2] was “at a comparable level to PFI-1”.
For `CN1Cc2cc(N=S(C)(=N)c3ccccc3)ccc2NC1=O` (racemic) [JHS2, rac-N-(3-methyl-2-oxo-1,2,3,4-tetrahydroquinazolin-6-yl)-N′—H—S-methyl-S-phenylsulfonediimide], the “effect … of HEL cells (in words)” value [1] was “inactive”, the “effect … of Molm-14 cells (in words)” value (AML cell line Molm-14) was “inactive” and the “inhibitory activity in haematopoietic / leukaemia cell lines (in words)” value [2] was “minor inhibitory activity”.
`COc1ccccc1[S@](C)(=O)=Nc1ccc2c(c1)CN(C)C(=O)N2` [MF1-S, (S)—N-(3-methyl-2-oxo-1,2,3,4-tetrahydroquinazolin-6-yl)-S-(2-methoxyphenyl)-S-methylsulfoximine] was tested, and the “effect … of HEL cells (in words)” value [1] was “comparable effect on the metabolic activity of HEL and Molm-14 cells to PFI-1” and the “effect … of Molm-14 cells (in words)” value (AML cell line Molm-14) was “comparable effect on the metabolic activity of HEL and Molm-14 cells to PFI-1”.
For `CN1Cc2cc(N=[S@](C)(=O)c3ccccc3)ccc2NC1=O` [MF2-R, (R)—N-(3-methyl-2-oxo-1,2,3,4-tetrahydroquinazolin-6-yl)-S-Methyl-S-Phenylsulfoximine], the “effect … of HEL cells (in words)” value [1] was “lost inhibitory activity compared to MF2”, the “effect … of Molm-14 cells (in words)” value (AML cell line Molm-14) was “lost inhibitory activity compared to MF2” and the “inhibitory activity in haematopoietic / leukaemia cell lines (in words)” value [2] was “showed inhibition of the cell proliferation of leukaemia cell lines”.
`CN1Cc2cc(N=S(=O)(c3ccccc3)c3ccccc3)ccc2NC1=O` [MF3, N-(3-methyl-2-oxo-1,2,3,4-tetrahydroquinazolin-6-yl)-S,S-diphenylsulfoximine] was tested, and the “inhibitory activity in haematopoietic / leukaemia cell lines (in words)” value [2] was “marked inhibitory activity” and the “activity relative to PFI-1 in haematopoietic cell lines” value [2] was “at a comparable level to PFI-1”.
With `CN1Cc2cc(N=[S@](C)(=Nc3ccccc3)c3ccccc3)ccc2NC1=O` [JHS1-S, (S)—N-(3-methyl-2-oxo-1,2,3,4-tetrahydroquinazolin-6-yl)-N-phenyl-S-methyl-S-phenylsulfonediimide] the “effect … of HEL cells (in words)” value [1] was “comparable effect on the metabolic activity” and the “effect … of Molm-14 cells (in words)” value (AML cell line Molm-14) was “comparable effect on the metabolic activity”.
For `COc1ccccc1S(=O)(=O)Nc1ccc2c(c1)CN(C)C(=O)N2` [PFI-1, reference compound], the “metabolic activity of HEL cells” value ([1]; 1 μM, DMSO control set to 100%) was 72.95%±12.7, the “metabolic activity of Molm-14 cells” value (AML cell line Molm-14; 1 μM, DMSO control set to 100%) was 80.43%±1.324 and the “colony count, healthy CD34+ controls 3 and 4” value ([3]; 1 μM) was “reduced the colony count of the controls to a lesser degree”. The “colony count, healthy controls 1 (PBMC) and 2 (CD34+ cells)” value ([3]; 5 μM) was “likewise reduced the amount of colonies”, the “binding of BET family proteins (ΔTm, in words)” value [4] was “specifically bind proteins of the BET family” and the “binding of BRD2 (ΔTm, in words)” value (BRD2) was “stronger binding of BRD2”.
For `COc1ccccc1[S@@](C)(=O)=Nc1ccc2c(c1)CN(C)C(=O)N2` [MF1-R, (R)—N-(3-methyl-2-oxo-1,2,3,4-tetrahydroquinazolin-6-yl)-S-(2-methoxyphenyl)-S-methylsulfoximine], the “effect … of HEL cells (in words)” value [1] was “virtually inactive”, the “effect … of Molm-14 cells (in words)” value (AML cell line Molm-14) was “virtually inactive” and the “inhibitory activity in haematopoietic / leukaemia cell lines (in words)” value [2] was “minor inhibitory effect”.
With `COc1ccccc1S(C)(=O)=Nc1ccc2c(c1)CN(C)C(=O)N2` (racemic) [MF1, rac-N-(3-methyl-2-oxo-1,2,3,4-tetrahydroquinazolin-6-yl)-S-(2-methoxyphenyl)-S-methylsulfoximine] the “inhibitory activity in haematopoietic / leukaemia cell lines (in words)” value [2] was “marked inhibitory activity; also recorded: showed inhibitory activity” and the “activity relative to PFI-1 in haematopoietic cell lines” value [2] was “at a comparable level to PFI-1”.
